According to patent US20110081428A1, “Use of thioflavin-like compounds to increase life span and/or health span” (priority 2009, published 2011):

Key:
[1] = test system: CL4176 (Aβ3-42 expressed in muscle); test: Worm paralysis assay, Aβ model; assay type: in vivo, Caenorhabditis elegans
Method: Scoring for paralysis was initiated 2 and 8 days after temperature upshift for CL4176 and AM140, respectively. […] For sensitivity to EtOH or levamisole resistance, CW152 gas-1 (fc21) X and ZZ26 unc-63(x26)I worms were picked into 0.4 M EtOH or 50 μM levamisole, respectively, equilibrated for 5 min, and scored for paralysis as described above. Treated and untreated worms were compared with an unpaired t-test (implemented in Prism 4, Graphpad™ Software, Inc., San Diego, Calif., USA).

[2] = target: Aβ3-42 aggregates in CL4176 (Homo sapiens, UniProt P05067); test: Aβ aggregation in vivo by immunohistochemistry; design: species or system Caenorhabditis elegans; conditions: CL4176, 50 μM ThT
Method: For immunofluorescence, N2, unc-He250 52(e669su250), CB1157 unc-54(e1157) or CL4176 dvIs27 [myo-3::Aβ(3 to 42)-let 3′UTR(pAF29); pRF4 (rol-6(su1006))] worms were treated for 24-36 h with or without 50 μM ThT at 25° C. After this period the worms were collected, rinsed, and fixed in 4% paraformaldehyde overnight. After fixation, worms were rinsed twice with 1 ml of 10 mM Tris-HCl pH 7.5 and then permeabilized by 24 h exposure to β-mercaptoethanol at 37° C. followed by collagenase treatment (2 mg/ml for 1-1.5 at 37° C.) to allow for digestion of the cuticle. Paramyosin and perlecans were detected with primary monoclonal antibodies 5-23 and MH3 (developed by Henry Epstein and Robert H. Waterston and obtained from the Developmental Studies Hybridoma Bank developed under the auspices of the NICHD and maintained by The University of Iowa, Department of Biology, Iowa City, Iowa 52242) and AlexaFluor 633 goat anti-mouse (Molecular Probes) as secondary antibody. Soluble oligomers and Aβ peptide were detected with anti polyclonal All (Invitrogen) and 6E10 monoclonal (Covance) primary antibodies, respectively, with AlexaFluor 568 goat anti-rabbit and AlexaFluor 488 goat anti-mouse (Molecular Probes) as secondary antibodies. Images were processed and quantified by using Image Analyst MK II (Novato, Calif.).

[3] = test system: DAF-16 fusion protein [TJ356 daf-16::daf-16-gfp]; test: DAF-16::GFP localization; assay type: in vivo, Caenorhabditis elegans; conditions: ThT or curcumin treatment, no heat shock
Method: (§1) For fluorescent microscopy, TJ356 zIs356 IV [daf-16::daf-16-gfp+rol-6] or CF2189 Is001(skn-1::gfp+rol-6) were paralyzed with 1 mM levamisole mounted on 1% agarose pads and imaged using Olympus BX51 (60× objective) and HCImage software (Hamamatsu). For immunofluorescence, N2, […], CB1157 unc-54(e1157) or CL4176 dvIs27 [myo-3::Aβ(3 to 42)-let 3′UTR(pAF29); pRF4 (rol-6(su1006))] worms were treated for 24-36 h with or without 50 μM ThT at 25° C. After this period the worms were collected, rinsed, and fixed in 4% paraformaldehyde overnight. […] Paramyosin and perlecans were detected with primary monoclonal antibodies 5-23 and MH3 (developed by Henry Epstein and Robert H. Waterston and obtained from the Developmental Studies Hybridoma Bank developed under the auspices of the NICHD and maintained by The University of Iowa, Department of Biology, Iowa City, Iowa 52242) and AlexaFluor 633 goat anti-mouse (Molecular Probes) as secondary antibody. Soluble oligomers and Aβ peptide were detected with anti polyclonal All (Invitrogen) and 6E10 monoclonal (Covance) primary antibodies, respectively, with AlexaFluor 568 goat anti-rabbit and AlexaFluor 488 goat anti-mouse (Molecular Probes) as secondary antibodies. Images were processed and quantified by using Image Analyst MK II (Novato, Calif.).

[4] = test system: SKN-1 fusion protein [CF2189 (skn-1::GFP)]; test: SKN-1::GFP localization; assay type: in vivo, Caenorhabditis elegans; conditions: ThT treatment
Method: as §1

HSP-16.2 = test: Western blot HSP-16.2; assay type: in vivo, Caenorhabditis elegans; conditions: 50 μM ThT, 100 μM curcumin, 4 and 7 days of treatment
Method: (§2) Peptide corresponding to amino acids 110-145 ([…]; SEQ ID NO:1) of HSP-16.2 was used to commercially synthesize antiserum (Invitrogen). Briefly, KLH-peptide was emulsified by mixing with an equal volume of Freund's adjuvant and injected into three subcutaneous dorsal sites for a total of 0.1 mg of peptide for immunization. The animals (rabbits) were bled, the blood allowed to clot and the serum collected by centrifugation. Monoclonal HSP-70 and Polyclonal HSF-1 primary antibodies were from stressgen (N27F3-4 and SPA-901, respectively).
(§3) Worms were transferred to siliconized eppendorf tubes, washed once in S-basal and frozen in liquid N2. Standard SDS-PAGE was performed using (4-12%) NOVEX gels and IVIES running buffer. Following transfer PVDF (BioRad) membranes were incubated with antisera (1:10000) or primary antibodies (1:1000) diluted in blocking buffer and then with secondary, goat anti-rabbit IgG antibody/horseradish peroxidase conjugate (Pierce), diluted 1:25000. Detection was undertaken with chemiluminescent reagents (SuperSignal, Pierce) and standard autoradiography.

HSP-70 = test: Western blot HSP-70; assay type: in vivo, Caenorhabditis elegans; conditions: 50 μM ThT, 4 and 7 days of treatment
Method: as §2, §3

HSF-1 = test: Western blot HSF-1; assay type: in vivo, Caenorhabditis elegans; conditions: ThT treatment
Method: as §2, §3

hsp-6 RNA = test: Real time quantitative PCR, hsp-6; assay type: in vivo, Caenorhabditis elegans; conditions: 50 μM ThT, 3 and 6 days of treatment
Method: (§4) Twelve single adults from control or 50 μM ThT populations were picked after 3, 6 and 12 days of treatment into 5 μl of distilled water and flash frozen until extraction. Individual worms were extracted using the RNeasy Micro Kit, TissueLyser and QIAcube (Qiagen). Using the manufacturer's standard Animal Tissue protocol, each sample was homogenized in buffer RLT/Bme (Qiagen) on the TissueLyser (6 min total at 20 Hz). Samples, reagents and columns were then loaded into the QIAcube robot, and processed using the “RNeasy Micro—Animal tissues and cells—DNase digest” program. Each sample was then eluted in 14 μl of Nuclease-free water. cDNA templates for the Real Time PCR reactions were made using a combination of Message Sensor RT kit (Ambion's) and TaqMan PreAmp Master Mix (Applied Biosystems). The entire worm sample was added to the RT reaction and reversed transcribed at 50° C. for 20 min, using Message Sensor's “Two Step RT-PCR Protocol” (sample RT's were randomized). Then 2.5 μl of the cDNA sample was pre-amplified with a “4×Multiplex Primer Mix” for 14 cycles using TaqMan PreAmp master mix and protocol (ABI). Two modifications were made to ABI's protocol: 1. the reaction volume was reduced to 10 μl and 2. after pre-amplification, each cDNA sample was diluted 1:5 with 1XTE Buffer (Promega). cDNA samples were stored at −20° C. until needed. […]

chn-1 RNA = test: Real time quantitative PCR, chn-1; assay type: in vivo, Caenorhabditis elegans; conditions: 50 μM ThT, 3 and 6 days of treatment
Method: as §4

unc-52 RNA = test: Real time quantitative PCR, unc-52; assay type: in vivo, Caenorhabditis elegans; conditions: 50 μM ThT, 12 days of treatment
Method: as §4

Chain of Aβ3-42 aggregates in CL4176 (P05067 674-713): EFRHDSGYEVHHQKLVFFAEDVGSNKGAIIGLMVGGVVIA

Cc1ccc2c(c1)sc(-c1ccc(N(C)C)cc1)[n+]2C.[Cl-] [ThT, 4-(3,6-dimethyl-1,3-benzothiazol-3-ium-2-yl)-N,N-dimethylaniline chloride]
paralysis when treated after aggregation induction ([1]; CL4176, 50 μM ThT added 18 h after induction of aggregate formation): rescued the Aβ3-42 aggregation-induced paralysis | proportion of paralyzed worms ([1]; CL4176, 25° C., 50 μM ThT, 100 μM curcumin): significantly decrease the proportion of paralyzed worms | Aβ aggregate formation and muscle integrity [2]: reduced aggregate formation and preserved the muscle integrity | DAF-16::GFP localization [3]: did not alter the normal localization | SKN-1::GFP nuclear accumulation [4]: no nuclear accumulation | HSP-16.2 protein levels (HSP-16.2): up-regulated | HSP-70 protein levels (HSP-70): up-regulated | HSF-1 protein levels (HSF-1): slight increase | hsp-6 RNA levels (hsp-6 RNA): up-regulated | chn-1 RNA levels (chn-1 RNA): up-regulated | unc-52 RNA levels (unc-52 RNA): decreases the levels of unc-52
